Test results from patent US12649907B2, “Alternate detergents for viral inactivation” (AMGEN INC., priority 2019, dated 2026).

Assays:
[1] = as indicated by the Hampton Kit; cited from earlier work
[2] = tested on: xMuLV; format: cell-based, xenotropic murine leukemia virus; details: initial screen, 10× CMC or 10% w/v, 30 minutes, 15° C., 5% virus spike, PG4 cells
[3] = tested on: xMuLV; experiment: Kinetic study of detergents, TCID50 LRV in host cell culture fluid matrices; format: cell-based, xenotropic murine leukemia virus; details: for Clearance of xMuLV within 30 minutes: 15° C.
[4] = tested on: PRV; format: cell-based, pseudorabies herpes virus
[5] = tested on: MMV; experiment: Concentration study, lowest concentration to inactivate virus; format: cell-based, mouse minute virus
[6] = tested on: xMuLV; experiment: as above; format: cell-based, xenotropic murine leukemia virus; details: 15° C., 30-minute incubation
[7] = tested on: xMuLV; experiment: Temperature-dependent study, TCID50 LRV in host cell culture fluid matrices; format: cell-based, xenotropic murine leukemia virus; details: for LRV BiTE ® / LRV fusion protein / LRV mAb: 30 minutes, 5× CMC; for Inactivation towards xMuLV at any temperature tested: in product matrices; for average LRV: process temperature of 15° C., average over modalities

In the case of `CC(C)CC(CC(C)C)O[C@@H]1O[C@H](CO)[C@@H](O[C@H]2O[C@H](CO)[C@@H](O)[C@H](O)[C@H]2O)[C@H](O)[C@H]1O` [2,6-Dimethyl-4-heptyl-b-D-malto-pyranoside], the CMC [1] is listed as 27.5 mM.
For `CCCCCCCCCCOCCOCCOCCOCCOCCOCCO` [Anapoe C10E6], the “Viral inactivation towards xMuLV (CPE)” value [2] was “did not”.
For `CCCCCCCCCCOCCOCCOCCOCCOCCOCCOCCOCCOCCO` [Anapoe C10E9], the “Viral inactivation towards xMuLV (CPE)” value [2] was “did not”.
With `CCCCCCCCCCCCOCCOCCOCCOCCOCCOCCOCCOCCOCCOCCO` [Anapoe C12E10] the “Viral inactivation towards xMuLV (CPE)” value [2] was “did not”.
With `CCCCCCCCCCCCCOCCOCCOCCOCCOCCOCCOCCOCCO` [Anapoe C13E8] the “Viral inactivation towards xMuLV (CPE)” value [2] was “did not”.
For `O=C(CCC1CCCCC1)N(CCO)C[C@H](O)[C@@H](O)[C@H](O)[C@H](O)CO` [C-HEGA ®-9], the CMC [1] is listed as 108 mM.
For `O=C(CCCC1CCCCC1)N(CCO)CC(O)C(O)C(O)C(O)CO` (stereo not drawn) [C-HEGA ®-10], the CMC [1] is listed as 35 mM.
For `O=C(CCCCC1CCCCC1)N(CCO)CC(O)C(O)C(O)C(O)CO` (stereo not drawn) [C-HEGA ®-11], the CMC [1] is listed as 11.5 mM.
In the case of `C[C@H](CCC(=O)NCCC[N+](C)(C)CC(O)CS(=O)(=O)[O-])[C@H]1CC[C@H]2[C@@H]3[C@H](O)C[C@@H]4C[C@H](O)CC[C@]4(C)[C@H]3C[C@H](O)[C@]12C` (stereo partly drawn) [CHAPSO], the CMC [1] is listed as 8 mM.
In the case of `C[C@H](CCC(=O)NCCC[N+](C)(C)CCCS(=O)(=O)[O-])[C@H]1CC[C@H]2[C@@H]3[C@H](O)C[C@@H]4C[C@H](O)CC[C@]4(C)[C@H]3C[C@H](O)[C@]12C` [CHAPS], the CMC [1] is given as 8 mM.
In the case of `OC[C@H]1O[C@H](O[C@H]2[C@H](O)[C@@H](O)[C@H](OCCCC3CCCCC3)O[C@@H]2CO)[C@H](O)[C@@H](O)[C@@H]1O` [CYMAL ®-3, 3-Cyclohexyl-1-Propyl-β-D-Maltoside], the CMC [1] is given as 34.5 mM.
In the case of `OC[C@H]1O[C@H](O[C@H]2[C@H](O)[C@@H](O)[C@H](OCCCCC3CCCCC3)O[C@@H]2CO)[C@H](O)[C@@H](O)[C@@H]1O` [CYMAL ®-4, 4-Cyclohexyl-1-Butyl-β-D-Maltoside], the CMC [1] is listed as 7.6 mM.
In the case of `OC[C@H]1O[C@H](O[C@H]2[C@H](O)[C@@H](O)[C@H](OCCCCCC3CCCCC3)O[C@@H]2CO)[C@H](O)[C@@H](O)[C@@H]1O` [CYMAL ®-5, 5-cyclohexylpentyl-β-D-maltoside], the CMC [1] is given as 5 mM, the “Clearance of xMuLV within 30 minutes” value [3] is given as “did not lead to robust clearance” and the “LRV 30 s” value ([3]; BiTE ® #1, 15° C.) is given as 0.19 ± 0.69. The “LRV 10 min” value ([3]; BiTE ® #1, 15° C.) was 0.06 ± 0.58, the “LRV 30 min” value ([3]; BiTE ® #1, 15° C.) was −0.06 ± 0.69 and the “LRV 30 s” value ([3]; fusion protein #1, 15° C.) was −0.06 ± 0.69. For the same compound, the “LRV 10 min” value ([3]; fusion protein #1, 15° C.) was 0.31 ± 0.52, the “LRV 30 min” value ([3]; fusion protein #1, 15° C.) was 0.62 ± 0.48 and the “LRV 30 s” value ([3]; mAb #1, 15° C.) was 0.25 ± 0.58. The “LRV 10 min” value ([3]; mAb #1, 15° C.) was 0.12 ± 0.58, the “LRV 30 min” value ([3]; mAb #1, 15° C.) was 0.62 ± 0.50 and the “Cytopathic effects (CPE) at 2.5×CMC” value [4] was “showed cytopathic effects (CPE)”. For the same compound, the “Cytopathic effects (CPE) at 2.5×CMC” value [5] was “showed cytopathic effects (CPE)”, the “Cytopathic effects (CPE) at 2.5×CMC” value [6] was “showed cytopathic effects (CPE)” and the “LRV BiTE ®” value ([7]; 15° C.) was −0.06 ± 0.69. For the same compound, the LRV fusion protein ([7]; 15° C.) was 0.62 ± 0.48, the “LRV mAb” value ([7]; 15° C.) was 0.62 ± 0.50 and the “increase in LRV at higher temperature (22° C.)” value ([7]; 22° C. versus 15° C.) was about 1 log. For the same compound, the “LRV BiTE ®” value ([7]; 22° C.) was 1.19 ± 0.29, the LRV fusion protein ([7]; 22° C.) was 1.01 ± 0.45 and the “LRV mAb” value ([7]; 22° C.) was 1.94 ± 0.52. The “Inactivation towards xMuLV at any temperature tested” value [7] was “did not yield significant inactivation” and the “average LRV” value [7] was 0.39.
For `OC[C@H]1O[C@H](O[C@H]2[C@H](O)[C@@H](O)[C@H](OCCCCCCC3CCCCC3)O[C@@H]2CO)[C@H](O)[C@@H](O)[C@@H]1O` [CYMAL ®-6, 6-cyclohexyl-1-hexyl-β-D-maltoside], the CMC [1] is given as 0.56 mM.
For `OC[C@H]1O[C@H](O[C@H]2[C@H](O)[C@@H](O)[C@H](OCCCCCCCC3CCCCC3)O[C@@H]2CO)[C@H](O)[C@@H](O)[C@@H]1O` [CYMAL ®-7, 7-cyclohexyl-l-heptyl-β-D-maltoside], the CMC [1] is listed as 0.19 mM.
For `CCCCCCCCCCCC[N+](C)(C)CCCC(=O)[O-]` [DDMAB], the CMC [1] is given as 4.3 mM.
For `CCCCCCCCOCCOCCOCCOCCO` [Detergent C8E4], the CMC [1] is given as 8 mM.
In the case of `CCCCCCCCOCCOCCOCCOCCOCCO` [Detergent C8E5], the CMC [1] is listed as 7.1 mM.
For `CCCCCCCCCCOP(=O)(O)OCCNC` [FOS-MEA ®-10], the CMC [1] is listed as 5.25 mM.
In the case of `CCCCCCCCCCOP(=O)([O-])OCC[N+](C)(C)C` [Fos-Choline ®-10, n-decylphosphocholine], the CMC [1] is listed as 11 mM, the “Clearance of xMuLV within 30 minutes” value [3] is listed as “did not lead to robust clearance” and the “LRV 30 s” value ([3]; BiTE ® #1, 15° C.) is listed as 0.69 ± 0.44. For the same compound, the “LRV 10 min” value ([3]; BiTE ® #1, 15° C.) was 1.57 ± 0.47, the “LRV 30 min” value ([3]; BiTE ® #1, 15° C.) was 3.92 ± 0.67 and the “LRV 30 s” value ([3]; fusion protein #1, 15° C.) was 0.82 ± 0.57. For the same compound, the “LRV 10 min” value ([3]; fusion protein #1, 15° C.) was 1.82 ± 0.51, the “LRV 30 min” value ([3]; fusion protein #1, 15° C.) was 3.51 ± 0.43 and the “LRV 30 s” value ([3]; mAb #1, 15° C.) was 0.69 ± 0.31. The “LRV 10 min” value ([3]; mAb #1, 15° C.) was 1.61 ± 0.56, the “LRV 30 min” value ([3]; mAb #1, 15° C.) was 3.97 ± 0.90 and the “Cytopathic effects (CPE) at 2.5×CMC” value [4] was “showed cytopathic effects (CPE)”. For the same compound, the “Cytopathic effects (CPE) at 2.5×CMC” value [5] was “showed cytopathic effects (CPE)”, the “Cytopathic effects (CPE) at 2.5×CMC” value [6] was “showed cytopathic effects (CPE)” and the “LRV BiTE ®” value ([7]; 5° C.) was 2.09 ± 0.31. For the same compound, the LRV fusion protein ([7]; 5° C.) was 1.76 ± 0.41, the “LRV mAb” value ([7]; 5° C.) was 2.54 ± 0.34 and the “LRV BiTE ®” value ([7]; 15° C.) was 3.92 ± 0.67. The LRV fusion protein ([7]; 15° C.) was 3.51 ± 0.43, the “LRV mAb” value ([7]; 15° C.) was 3.97 ± 0.90 and the “Inactivation towards xMuLV at any temperature tested” value [7] was “did not yield significant inactivation”. The “average LRV” value [7] was 3.8.
In the case of `CCCCCCCNC(=O)OC[C@H]1O[C@H](OC)[C@H](O)[C@@H](O)[C@@H]1O` [HECAMEG ®], the CMC [1] is given as 19.5 mM.
For `CCCCCCCC(=O)N(CCO)C[C@H](O)[C@@H](O)[C@H](O)[C@H](O)CO` [HEGA ®-8], the CMC [1] is given as 109 mM.
For `CCCCCCCCC(=O)N(CCO)C[C@H](O)[C@@H](O)[C@H](O)[C@H](O)CO` [HEGA ®-9], the CMC [1] is given as 39 mM.
For `CCCCCCCCCC(=O)N(CCO)C[C@H](O)[C@@H](O)[C@H](O)[C@H](O)CO` [HEGA ®-10], the CMC [1] is listed as 7 mM.
For `CCCCCCCCOCCOCCOCCOCCOCCOCCO` [Hexaethylene glycol monooctyl ether], the CMC [1] is given as 10 mM.
In the case of `CCCCCCCCCCCC(=O)OC[C@@H](O)COP(=O)([O-])OCC[N+](C)(C)C` [LysoFos ™ Choline 12], the CMC [1] is listed as 0.7 mM.
In the case of `CCCCCCCCCCCCCC(=O)OC[C@@H](O)COP(=O)([O-])OCC[N+](C)(C)C` [LysoFos ™ Choline 14], the CMC [1] is given as 0.036 mM.
For `CCCCCCCC(=O)N(C)C[C@H](O)[C@@H](O)[C@H](O)[C@H](O)CO` [MEGA-8], the CMC [1] is listed as 79 mM.
For `CCCCCCCCC(=O)N(C)C[C@H](O)[C@@H](O)[C@H](O)[C@H](O)CO` [MEGA-9], the CMC [1] is given as 25 mM.
For `CCCCCCCCCC(=O)N(C)C[C@H](O)[C@@H](O)[C@H](O)[C@H](O)CO` [MEGA-10], the CMC [1] is listed as 7 mM.
For `CCCCCCCC[N+](C)(C)CCCS(=O)(=O)[O-]` [ZWITTERGENT ® 3-08], the CMC [1] is listed as 330 mM.
For `CCCCCCCCCCO[C@@H]1O[C@H](CO)[C@@H](O[C@H]2O[C@H](CO)[C@@H](O)[C@H](O)[C@H]2O)[C@H](O)[C@H]1O` [n-Decyl-b-D-maltoside], the CMC [1] is given as 1.8 mM.
For `CCCCCCCCCCCCO[C@@H]1O[C@H](CO)[C@@H](O[C@H]2O[C@H](CO)[C@@H](O)[C@H](O)[C@H]2O)[C@H](O)[C@H]1O` [n-Dodecyl-b-D-maltoside], the CMC [1] is listed as 0.17 mM.
In the case of `CCCCCCO[C@@H]1O[C@H](CO)[C@@H](O)[C@H](O)[C@H]1O` [n-Hexyl-b-D-glucopyranoside], the CMC [1] is listed as 250 mM.
For `CCCCCCCCCO[C@@H]1O[C@H](CO)[C@@H](O)[C@H](O)[C@H]1O` [n-Nonyl-b-D-glucoside], the CMC [1] is listed as 6.5 mM.
In the case of `CCCCCCCCCO[C@@H]1O[C@H](CO)[C@@H](O[C@H]2O[C@H](CO)[C@@H](O)[C@H](O)[C@H]2O)[C@H](O)[C@H]1O` [n-Nonyl-b-D-maltoside], the CMC [1] is listed as 6 mM.
In the case of `CCCCCCCCCS[C@@H]1O[C@H](CO)[C@@H](O[C@H]2O[C@H](CO)[C@@H](O)[C@H](O)[C@H]2O)[C@H](O)[C@H]1O` [n-Nonyl-b-D-thiomaltoside], the CMC [1] is given as 3.2 mM.
In the case of `CCCCCCCCO[C@@H]1O[C@H](CO)[C@@H](O)[C@H](O)[C@H]1O` [n-Octyl-b-D-glucoside], the CMC [1] is given as 20 mM.
In the case of `CCCCCCCCS[C@@H]1O[C@H](CO)[C@@H](O)[C@H](O)[C@H]1O` [n-Octyl-β-D-Thioglucoside], the CMC [1] is given as 9 mM.
For `CCCCCCCCS[C@@H]1O[C@H](CO)[C@@H](O[C@H]2O[C@H](CO)[C@@H](O)[C@H](O)[C@H]2O)[C@H](O)[C@H]1O` [n-Octyl-β-D-Thiomaltopyranoside], the CMC [1] is given as 8.8 mM.
For `CCCCCCCCCCCCCOC1OC(CO)C(OC2OC(CO)C(O)C(O)C2O)C(O)C1O` [n-Tridecyl-β-D-maltoside], the CMC [1] is given as 0.033 mM.
For `CCCCCCCCCCCO[C@@H]1O[C@H](CO)[C@@H](O[C@H]2O[C@H](CO)[C@@H](O)[C@H](O)[C@H]2O)[C@H](O)[C@H]1O` [n-Undecyl-b-D-maltoside], the CMC [1] is listed as 0.59 mM.
In the case of Sucrose monolaurate, the CMC [1] is listed as 0.3 mM.
In the case of n-Decanoylsucrose, the CMC [1] is listed as 2.5 mM.
